molecular target: human hematopoietic synthase (Homo sapiens, UniProt O60760); test: Hematopoietic synthase inhibitory activity (Experiment 1); type: biochemical; conditions: [14C] prostaglandin H2 10 μM, preincubated at 25° C. for 5 minutes, 1 minute reaction; read-out: Concentration of Pharmaceutical Compound Required to Inhibit 50% of Hematopoietic Synthase
Method: Experiment 1 was carried out according to the method of Urade, Y. et al. (J. Biol. Chem. 262, 3820-3825, (1987)). More specifically, the reaction mixture (49 μL); 100 mM Tris-HCl (pH 8.0), 1 mM reduced glutathione, 0.1 mg/mL γ-globulin, and human hematopoietic synthase (quantum sufficient), and a test compound (final concentration: 0.01-100 μM) were preincubated at 25° C. for 5 minutes. In place of the test compound, a DMSO solution (final concentration: 1%) was used in the solvent control group (Control Group). Subsequently, 1 μL of [^14C] prostaglandin H2 (final concentration: 10 μM) was added to start the reaction. One minute after the start of the reaction, 250 μL of a reaction stopper solution (diethylether/methanol/1M citric acid (30/4/1) cooled to −20° C. was added to stop the reaction.
Thereafter, 50 μL of the upper layer portion (organic solvent phase) was applied to a TLC plate and developed at −20° C. for 45 minutes (developer: diethylether/methanol/acetic acid (capacity ratio=90/2/1)). After drying the plate, the plate was exposed to an imaging plate for 1 to 24 hours, and the radioactivity corresponding to prostaglandin D2 was analyzed using an image analyzer (product of FUJIFILM Corporation). The area (%) occupied by the prostaglandin D2 band per lane was calculated, and the concentration of the test compound required to inhibit 50% of the hematopoietic synthase (IC50 value) was calculated by comparison with the Control group in each experiment.

human hematopoietic synthase, sequence (O60760 whole entry): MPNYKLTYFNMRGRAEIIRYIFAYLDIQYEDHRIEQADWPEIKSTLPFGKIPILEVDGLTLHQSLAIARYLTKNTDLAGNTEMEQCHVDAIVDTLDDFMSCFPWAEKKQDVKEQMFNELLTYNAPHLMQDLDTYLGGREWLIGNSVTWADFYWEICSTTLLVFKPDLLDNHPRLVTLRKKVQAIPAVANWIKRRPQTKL

SMILES	IC50 [nM]
Cc1[nH]c(C(=O)N(C)C)c(C)c1-c1nc2cc(Sc3ccncc3)c(Oc3ccccc3)cc2[nH]1 [Comparative Example 2, (N,N-Dimethyl)-4-(5-(4-pyridylsulfenyl)-6-phenoxybenzimidazole-2-yl)-3,5-dimethylpyrrole-2-carboxamide, reference compound]	> 30000
O=C(c1ccccc1)c1ccc2[nH]c(-c3ccc(P(=O)(O)O)o3)nc2c1 [Comparative Example 3, 5-Benzophenone-2-(2-phosphono-5-furanyl)benzimidazole dihydrate, reference compound]	29300
Cc1oc(C(=O)NCc2ccc3c(c2)OCO3)c(C)c1-c1nc2cc(C(=O)c3ccccc3)ccc2[nH]1 [Compound 4, N-(3,4-Methylenedioxyphenyl)methyl-4-(5-benzoylbenzimidazol-2-yl)-3,5-dimethylfuran-2-carboxamide]	278
Cc1[nH]c(C(=O)N(C)CCN(C)C)c(C)c1-c1nc2cc(C(=O)c3ccccc3)ccc2[nH]1 [Compound 11, N-Methyl-N-(2-dimethylaminoethyl)-4-(5-benzoylbenzimidazol-2-yl)-3,5-dimethylpyrrole-2-carboxamide]	269
Cc1[nH]c(C(N)=O)c(C)c1-c1nc2cc(C(=O)c3ccccc3)ccc2[nH]1 [Compound 12, 4-(5-Benzoylbenzimidazol-2-yl)-3,5-dimethylpyrrole-2-carboxamide]	100
COCCCNC(=O)c1[nH]c(C)c(-c2nc3cc(C(=O)c4ccccc4)ccc3[nH]2)c1C [Compound 16, N-(3-Methoxypropyl)-4-(5-benzoylbenzimidazol-2-yl)-3,5-dimethylpyrrole-2-carboxamide]	2280
CCOC(=O)CCNC(=O)c1[nH]c(C)c(-c2nc3cc(C(=O)c4ccccc4)ccc3[nH]2)c1C [Compound 19, N-(2-Ethoxycarbonylethyl)-4-(5-benzoylbenzimidazol-2-yl)-3,5-dimethylpyrrole-2-carboxamide]	874
COC(=O)CNC(=O)c1[nH]c(C)c(-c2nc3cc(C(=O)c4ccccc4)ccc3[nH]2)c1C [Compound 20, N-(1-Methoxycarbonylmethyl)-4-(5-benzoylbenzimidazol-2-yl)-3,5-dimethylpyrrole-2-carboxamide]	871
Cc1[nH]c(C(=O)NCC(=O)O)c(C)c1-c1nc2cc(C(=O)c3ccccc3)ccc2[nH]1 [Compound 22, N-(1-Carboxymethyl)-4-(5-benzoylbenzimidazol-2-yl)-3,5-dimethylpyrrole-2-carboxamide]	829
Cc1[nH]c(C(=O)NCCN2CCCC2)c(C)c1-c1nc2cc(C(=O)c3ccccc3)ccc2[nH]1 [Compound 23, N-(2-Pyrrolidine-1-yl-ethyl)-4-(5-benzoylbenzimidazol-2-yl)-3,5-dimethylpyrrole-2-carboxamide]	223
Cc1[nH]c(C(=O)NCCN2CCCCC2)c(C)c1-c1nc2cc(C(=O)c3ccccc3)ccc2[nH]1 [Compound 24, N-(2-Piperidine-1-yl-ethyl)-4-(5-benzoylbenzimidazol-2-yl)-3,5-dimethylpyrrole-2-carboxamide]	496
Cc1cc(NC(=O)c2[nH]c(C)c(-c3nc4cc(C(=O)c5ccccc5)ccc4[nH]3)c2C)no1 [Compound 26, N-(5-Methylisoxazole-3-yl)-4-(5-benzoylbenzimidazol-2-yl)-3,5-dimethylpyrrole-2-carboxamide]	149
Cc1[nH]c(C(=O)Nc2ccc3c(c2)OCO3)c(C)c1-c1nc2cc(C(=O)c3ccccc3)ccc2[nH]1 [Compound 29, N-(3,4-Methylenedioxyphenyl-1-yl)-4-(5-benzoylbenzimidazol-2-yl)-3,5-dimethylpyrrole-2-carboxamide]	53
Cc1[nH]c(C(=O)Nc2ccc3c(c2)CCO3)c(C)c1-c1nc2cc(C(=O)c3ccccc3)ccc2[nH]1 [Compound 30, N-(2,3-Dihydrobenzofuran-5-yl)-4-(5-benzoylbenzimidazol-2-yl)-3,5-dimethylpyrrole-2-carboxamide]	113
Cc1[nH]c(C(=O)Nc2ccc3ncsc3c2)c(C)c1-c1nc2cc(C(=O)c3ccccc3)ccc2[nH]1 [Compound 31, N-(Benzothiazole-6-yl)-4-(5-benzoylbenzimidazol-2-yl)-3,5-dimethylpyrrole-2-carboxamide]	90
COc1ccc(CNC(=O)c2[nH]c(C)c(-c3nc4cc(C(=O)c5ccccc5)ccc4[nH]3)c2C)cc1OC [Compound 36, N-(3,4-Dimethoxybenzyl)-4-(5-benzoylbenzimidazol-2-yl)-3,5-dimethylpyrrole-2-carboxamide]	195
Cc1[nH]c(C(=O)NCc2ccc3c(c2)OCO3)c(C)c1-c1nc2cc(C(=O)c3ccccc3)ccc2[nH]1 [Compound 37, N-(3,4-Methylenedioxyphenylmethyl)-4-(5-benzoylbenzimidazol-2-yl)-3,5-dimethylpyrrole-2-carboxamide]	213
Cc1[nH]c(C(=O)N2CCC(O)CC2)c(C)c1-c1nc2cc(C(=O)c3ccccc3)ccc2[nH]1 [Compound 43, ((4-(5-Benzoylbenzimidazol-2-yl)-3,5-dimethylpyrrol-2-yl)-carbonyl)-4-hydroxypiperidine]	791

Continued, values first:

IC50 [nM]	SMILES
> 30000	CCOC(=O)c1[nH]c(C)c(-c2nc3cc(Sc4ccncc4)c(Oc4ccccc4)cc3[nH]2)c1C [Comparative Example 1, 4-(5-(4-Pyridylsulfenyl)-6-phenoxybenzimidazole-2-yl)-3,5-dimethylpyrrole-2-carboxylic acid ethyl ester, reference compound]
436	Cc1[nH]c(C(=O)O)c(C)c1-c1nc2cc(C(=O)c3ccccc3)ccc2[nH]1 [Compound 10, 4-(5-Benzoylbenzimidazol-2-yl)-3,5-dimethylpyrrole-2-carboxylic acid]
355	CONC(=O)c1[nH]c(C)c(-c2nc3cc(C(=O)c4ccccc4)ccc3[nH]2)c1C [Compound 14, N-(Methoxy)-4-(5-benzoylbenzimidazol-2-yl)-3,5-dimethylpyrrole-2-carboxamide]
124	Cc1[nH]c(C(=O)NCCCN(C)C)c(C)c1-c1nc2cc(C(=O)c3ccccc3)ccc2[nH]1 [Compound 17, N-(3-Dimethylaminopropyl)-4-(5-benzoylbenzimidazol-2-yl)-3,5-dimethylpyrrole-2-carboxamide]
80	CC(=O)NCCNC(=O)c1[nH]c(C)c(-c2nc3cc(C(=O)c4ccccc4)ccc3[nH]2)c1C [Compound 18, N-(2-Acetamidoethyl)-4-(5-benzoylbenzimidazol-2-yl)-3,5-dimethylpyrrole-2-carboxamide]
286	Cc1[nH]c(C(=O)NCC2CCCCC2)c(C)c1-c1nc2cc(C(=O)c3ccccc3)ccc2[nH]1 [Compound 25, N-(Cyclohexylmethyl)-4-(5-benzoylbenzimidazol-2-yl)-3,5-dimethylpyrrole-2-carboxamide]
309	Cc1[nH]c(C(=O)Nc2ccc(C#N)cc2)c(C)c1-c1nc2cc(C(=O)c3ccccc3)ccc2[nH]1 [Compound 27, N-(4-Cyanophenyl)-4-(5-benzoylbenzimidazol-2-yl)-3,5-dimethylpyrrole-2-carboxamide]
73	Cc1[nH]c(C(=O)Nc2ccc3[nH]ccc3c2)c(C)c1-c1nc2cc(C(=O)c3ccccc3)ccc2[nH]1 [Compound 28, N-(Indole-5-yl)-4-(5-benzoylbenzimidazol-2-yl)-3,5-dimethylpyrrole-2-carboxamide]
124	Cc1[nH]c(C(=O)Nc2ccc3c(c2)OCCO3)c(C)c1-c1nc2cc(C(=O)c3ccccc3)ccc2[nH]1 [Compound 32, N-(3,4-Ethylenedioxyphenyl)-4-(5-benzoylbenzimidazol-2-yl)-3,5-dimethylpyrrole-2-carboxamide]
72	Cc1[nH]c(C(=O)NCCc2ccccn2)c(C)c1-c1nc2cc(C(=O)c3ccccc3)ccc2[nH]1 [Compound 34, N-(2-(2-Pyridyl)ethyl)-4-(5-benzoylbenzimidazol-2-yl)-3,5-dimethylpyrrole-2-carboxamide]
746	Cc1[nH]c(C(=O)NCc2ccc(Cl)c(Cl)c2)c(C)c1-c1nc2cc(C(=O)c3ccccc3)ccc2[nH]1 [Compound 35, N-(3,4-Dichlorobenzyl)-4-(5-benzoylbenzimidazol-2-yl)-3,5-dimethylpyrrole-2-carboxamide]
136	Cc1[nH]c(C(=O)NCC2=NNC(=O)CC2)c(C)c1-c1nc2cc(C(=O)c3ccccc3)ccc2[nH]1 [Compound 38, N-(2,3,4,5-Tetrahydro-3-oxo-pyridazine-6-yl-methyl)-4-(5-benzoylbenzimidazol-2-yl)-3,5-dimethylpyrrole-2-carboxamide]
351	Cc1[nH]c(C(=O)N2CCCC2)c(C)c1-c1nc2cc(C(=O)c3ccccc3)ccc2[nH]1 [Compound 39, ((4-(5-Benzoylbenzimidazol-2-yl)-3,5-dimethylpyrrol-2-yl)-carbonyl)pyrrolidine]
1450	Cc1[nH]c(C(=O)N2CCN(c3ccccc3)CC2)c(C)c1-c1nc2cc(C(=O)c3ccccc3)ccc2[nH]1 [Compound 41, ((4-(5-Benzoylbenzimidazol-2-yl)-3,5-dimethylpyrrol-2-yl)-carbonyl)-4-phenylpiperazine]

From US7951956B2, “Benzoimidazole compound capable of inhibiting prostaglandin D synthetase” (Taiho Pharmaceuticals Co., Ltd., priority 2005, dated 2011)
